Test results: US20140163082A1, “PYRAZOLYL COMPOUNDS FOR USE IN REVERSING REACTIVE GLIOSIS” (priority 2011, published 2014)

Tests used:
R28 cells = assay: Western blot, R28; format: cell-based, rat; conditions: R28, hypoxia 48 hours, YC-1 25-100 μM
Protocol: (§1) Cells were placed in airtight chambers [BioSpherix, Redfield, N.Y.] and the O2 tension was maintained at 1.2% by using Pro-Ox Model 110 O2 regulator [BioSpherix, Redfield, N.Y.]. The chamber was purged with a gas mixture of 5.32% CO2, and 93.48% N2. […] Müller cells [rMC-1] and […] cells were seeded overnight in 6-well plates [10^5 cells/well]. Cells were treated with either YC-1 [25-100 μM] or DMSO [0.2% v/v] for 48 hours under normoxic or hypoxic environments. Reactions were terminated by addition of lysis buffer [Cell Signaling, Beverly, Mass.]. Protein content of the cell lysates was determined according to the Bradford method [Bio-Rad, Hercules, Calif.]. Aliquots [40 μg] of whole-cell lysates were separated on 7.5% SDS-PAGE, and electro-transferred onto polyvinylidene membranes [Amersham Pharmacia Biotech, Little Chalfont]. After blocking with 5% nonfat dry milk in TBS-T, the blots were incubated overnight with anti-iNOS [at 1:100] and anti-β-actin [internal control] antibodies. Then blots were washed 3×10 min washes in PBS/tween and subsequently incubated with peroxidase-conjugated anti-mouse IgG secondary antibody at 1:3000. The signals were obtained by enhanced chemiluminescence [Amersham Biosciences], and visualized by exposure to X-ray film. Upon completion of chemiluminescence, equal lane loading was checked by Ponceau S Solution [Sigma, St. Louis, Mo.]. X-ray films were scanned with a computer-assisted densitometer [model G-710; Bio-Rad] to quantify band optical density [Quantity One software; Bio-Rad].

rMC-1 cells [1] = test system: rMC-1 cells
rMC-1 cells [2] = assay: GFAP immunofluorescence, rMC-1; format: cell-based; conditions: for GFAP protein expression (immunofluorescence): vs hypoxic controls
Protocol: Cells were placed in airtight chambers [BioSpherix, Redfield, N.Y.] and the O2 tension was maintained at 1.2% by using Pro-Ox Model 110 O2 regulator [BioSpherix, Redfield, N.Y.]. The chamber was purged with a gas mixture of 5.32% CO2, and 93.48% N2. […] Müller cells [rMC-1] and […] cells [2×10^4 cells per well] were grown on 8-well chamber slides and cultured in 300 μl of their growing media, which contained YC-1 [25-100 μM] or DMSO [0.2% v/v] and incubated under normoxia or hypoxia for 48 hours at 37° C. YC-1 or DMSO was added 5 minutes prior to the hypoxic incubation. The cells were fixed 48 hours later with 3.7% paraformaldehyde and permeabilized with 0.2% TritonTM X-100 in PBS. The cells were incubated for two hours with anti-GFAP antibody. Negative control experiments consisted of omission of the primary antibody. Cells were then incubated with HRP-conjugate working solution, followed by the addition of the […] solution [TSA Kit#2 and #4 for rMC-1 and […] staining, respectively] at 1:100 dilutions [Molecular Probes, Carlsbad, Calif.]. Digitized images were acquired utilizing AxioVision software [Zeiss Axiovert 135 and AxioCam]. Intensity values of immunofluorescence staining of GFAP in rMC-1 and […] cells was analyzed and quantified using MetamorphTM imaging analysis software version 6.0 [Universal Imaging, Sunnyvale, Calif.]. The staining intensity in our series ranged from a weak blush to moderate or strong. The amount of cells staining with the antibody was further categorized as focal [<10%], patchy [10%-50%], and diffuse [>50%]. For semiquantitative analysis, focal and/or weak staining was considered equivocal staining, and patchy or diffuse staining was subcategorized as either moderate or strong.

rMC-1 cells [3] = assay: Western blot, rMC-1; format: cell-based; conditions: rMC-1, hypoxia 48 hours, YC-1 25-100 μM
Protocol: as §1

[4] = test system: hRMVECs cocultured with rMC-1 cells; assay: Cell proliferation in a co-culture system model (MTT); format: cell-based, human; conditions: rMC-1 cells treated with YC-1 100 μM for 24 hours, normoxic and hypoxic conditions
Protocol: To test the influence of Móller cells [rMC-1] on the hRMVECs proliferation, rMC-1 [2×10^5 cells cm—2] were plated in a transwell insert [Millipore, Billerica, Mass.] with […] pores and allowed to adhere overnight in 150 μL of CS—C complete medium [Cell Systems, Kirkland, Wash.], supplemented with 10% FBS and incubated at 37° C. under normoxic [5% CO2/95% air]. The rMC-1 cells were then incubated under normoxic [5% CO2/95% air], or hypoxic conditions. To establish hypoxic conditions, cells were placed in airtight chambers [BioSpherix, Redfield, N.Y.] that were flushed with a gas mixture of 5% CO2 and 95% N2. Oxygen concentrations within these chambers were maintained at 1.2% using Pro-Ox Model 110 O2 regulators. After treating the r-MC-1 cells with YC-1 [100 μM] for 24 hours, the insert was then placed into 24 well-plates, in which hRMVECs were plated at 5×10^3 cells cm^−2 and allowed to adhere overnight [FIG. 7B]. hRMVECs proliferation was evaluated using 3, […]-2,5-diphenyl tetrazolium bromide [MTT] colorimetric assay [Mosmann,1983], at 24, 48, 72, and 96 hours after coculture. During the last 4 hours of each day, […] of 5 mg/ml MTT [Millipore, Billerica, Mass.] was added in each well. Formed Formazan crystals were dissolved in […] DMSO and optical density was recorded at 492 nm. Experiments were performed on at least three independent occasions. […]

[5] = rMC-1, 25 μM YC-1, hypoxia 48 hours

OCc1ccc(-c2nn(Cc3ccccc3)c3ccccc23)o1 [YC-1, 3-(5′-hydroxymethyl-2′-furyl)-1-benzylindazole]
HIF-1 protein level (Western blot) (R28 cells; vs DMSO-treated hypoxic cells): inhibited the hypoxia-induced upregulation
PDGF-B protein level (Western blot) (R28 cells; vs DMSO-treated hypoxic cells): inhibited the hypoxia-induced upregulation
VEGF protein level (Western blot) (R28 cells; vs DMSO-treated hypoxic cells): inhibited the hypoxia-induced upregulation
iNOS protein level (Western blot) (R28 cells; vs DMSO-treated hypoxic cells): inhibited the hypoxia-induced upregulation
GFAP protein level (Western blot) (R28 cells; vs non-treated hypoxic cells): inhibited the hypoxia-induced GFAP protein levels in a dose-dependent manner
cell viability (DAPI exclusion) (rMC-1 cells [1]): comprised the majority of cells
GFAP cytoplasmic staining pattern/intensity (immunofluorescence) (rMC-1 cells [2]; [5]): weaker equivocal staining intensity
GFAP staining vs DMSO-treated hypoxic controls (immunofluorescence) (rMC-1 cells [2]; [5]): remarkable inhibition
GFAP protein expression (immunofluorescence) (rMC-1 cells [2]; rMC-1, 50 μM YC-1, hypoxia): significant inhibitory effects
GFAP protein expression (immunofluorescence) (rMC-1 cells [2]; rMC-1, 75 μM YC-1, hypoxia): significant inhibitory effects
GFAP staining remaining in cytoplasm (immunofluorescence) (rMC-1 cells [2]; rMC-1, 100 μM YC-1, hypoxia): few stained regions
GFAP protein levels (quantified staining intensity, FIG. 11C) (rMC-1 cells [2]; rMC-1, hypoxia, dose-dependent fashion): significantly reduced
HIF-1 protein level (Western blot) (rMC-1 cells [3]; vs DMSO-treated hypoxic cells): inhibited the hypoxia-induced upregulation
PDGF-B protein level (Western blot) (rMC-1 cells [3]; vs DMSO-treated hypoxic cells): inhibited the hypoxia-induced upregulation
VEGF protein level (Western blot) (rMC-1 cells [3]; vs DMSO-treated hypoxic cells): inhibited the hypoxia-induced upregulation
iNOS protein level (Western blot) (rMC-1 cells [3]; vs DMSO-treated hypoxic cells): inhibited the hypoxia-induced upregulation
GFAP protein level (Western blot) (rMC-1 cells [3]; vs non-treated hypoxic cells): inhibited the hypoxia-induced GFAP protein levels in a dose-dependent manner
proliferation of hRMVECs in coculture [4]: significantly suppressed
